From publication PMC5876303, “Discovery of C-3 Tethered 2-oxo-benzo[1,4]oxazines as Potent Antioxidants: Bio-Inspired Based Design, Synthesis, Biological Evaluation, Cytotoxic, and in Silico Molecular Docking Studies” (Frontiers in Chemistry, 2018)
Converted amounts (≈) assume the structure as drawn. Like-named read-outs stand apart in the source and are kept apart here.

How the values were obtained:
[1] = Figure 1, cited from earlier work
[2] = Ferric reducing antioxidant power (FRAP) assay; assay type: biochemical; conditions: for FRAP assay (C0.5FRAP): mean ± SD, n = 3, concentration equivalent to FeSO4 at 0.5 mmol/L, 37°C, 30 min, 593 nm; for FRAP potency compared with standard reference BHT: in words, BHT C0.5FRAP = 546.0 ± 13.6 μM
Description: The FRAP reagent was prepared by the addition of freshly prepared 20.0 mM FeCl3.6H2O solution, 10.0 mM of […] (TPTZ) solution and 300 mM sodium acetate buffer (pH 3.6) in a ratio of 1:1:10 (v/v/v). After that, Sample (our synthesized 2-oxo-2-phenylethylidenes-linked 2-oxo-benzo[1,4]oxazines 20a-ab) was added to 3 ml of freshly prepared FRAP reagent and this reaction mixture was incubated at 37°C temperature for 30 min. and the absorbance was measured at 593 nm. It is also noted that, a freshly prepared solution of FeSO4 was used for calibration of standard curve. The FRAP antioxidant capability were evaluated in terms of C0.5FRAP (the antioxidant capability of samples related to their concentration, which is equivalent to that of FeSO4 at 0.5 mmol/L) (Benzie and Strain, [1996]).
The FRAP assay was deliberated using the method as illustrated by Benzie and Strain (Benzie and Strain, [1996]). […] The reducing nature of an antioxidant depends on their property to donate a hydrogen atom for the breaking of the free radical chain, which is responsible for oxidative stress etc.

[3] = system: 3T3 fibroblast cell lines; assay: in vitro; assay type: cell-based; conditions: mouse, 72 h, 250 μg/ml
Description: (§1) Cell toxicity of active C-3 tethered 2-oxo-benzo[1,4]oxazine analogs were accessed using 3T3 fibroblast cell lines in MTT assay via the reported protocol of Danihelová et al. ([2013]) [For details, see supporting information].
(§2) The cytotoxic effect of the active compounds prepared on cells was detected in vitro using the mitochondrial cytotoxic test according to Danihelová et al. (2013) with modifications. Cell viability was evaluated using thiazolyl blue tetrazolium bromide (MTT), which indicates the metabolic activity of cells. The experiment was performed in 96-well microplates. The cells were seeded at a density of 3.5×10^3 3T3 fibroblast cells per well. Samples were dissolved in DMSO (stock solution 10 […]
(§3) (concentration of DMSO 0.5%) and after 24 h they were added to the cells. Microplates were cultivated for 72 h in thermostat at 37 °C and 5% CO 2 atmosphere. After incubation thiazolyl blue tetrazolium bromide (3.33 mg/ml phosphate buffered saline, pH=7.4) was pipetted to each well and left to incubate for further two hours. Then the medium with MTT solution was removed. Formazan crystals in viable cells were dissolved in the lysis solution (4 mM HCl and 0.1% Nonidet P40 in ethanol). Microplates were shaken 15 min at 1500 rpm. Absorbance was measured at 540 nm and reference wavelength at 740 nm. Each value is the mean of 6 wells with standard deviation.
(§4) Inhibition activity was expressed as percentages of control with DMSO.

in vitro = assay type: cell-based; conditions: mouse, Cell viability (%)
Description: as §1, §2, §3, §4

[4] = DPPH radical scavenging antioxidant assay; assay type: biochemical; conditions: Table 1; mean ± SD, n = 3; 517 nm after 20 min
Description: In DPPH radical scavenging method the plant extract (0.75 mL) at different concentrations ranging from 10 to 100 μg mL^−1 was mixed with 1.5 mL of a DPPH methanolic solution (20 mg L^−1). Pure methanol was taken as control and ascorbic acid (vitamin C), vitamins A and E were used as a reference compounds. The absorbance was measured at 517 nm after 20 min of reaction. The % of DPPH decolouration of the sample was calculated according to the formula (Sharma and Bhat, [2009]).
Decolouration % = [1−(Abs SAMPLE/Abs CONTROL)]×100
The decolouration was plotted against the sample extract concentration and a logarithmic regression curve was established in order to calculate the IC50. The results are expressed as antiradical efficiency (AE), which is 1000-fold inverse of the IC50 value AE=1000/ IC50.

[5] = ref Niemeyer, 2009, Adhikari et al., 2013, Glenska et al., 2015

| melting point | DPPH assay IC50 [4] | SMILES | % DPPH-scavenging activity [1, 5] | IC50 (antioxidant activity) [1, 5] | % DPPH-scavenging activity ([1]; ref Sáncheza et al., 2014) | IC50 (antioxidant activity) ([1]; ref Harput et al., 2011) | FRAP assay (C0.5FRAP) [2] | Cell viability (%) [3] | viability at 72 h, 25 μg/ml (in vitro) | viability at 72 h, 50 μg/ml (in vitro) | viability at 72 h, 100 μg/ml (in vitro) | viability at 72 h, 250 μg/ml (in vitro) | FRAP potency compared with standard reference BHT [2] |
| --- | --- | --- | --- | --- | --- | --- | --- | --- | --- | --- | --- | --- | --- |
| – | – | COc1ccc2c(c1)OC(O)C(=O)N2O (stereo not drawn) [Compound 1, DIMBOA] | 98.57% | 11.31 µg/mL (≈ 53.6 µM) | – | – | – | – | – | – | – | – | – |
| – | – | O=c1[nH]c2ccccc2c(=O)o1 [Compound 4, 2H-benzo[d][1,3]oxazine-2,4(1H)-dione] | – | – | 17.2 ± 4.15% | – | – | – | – | – | – | – | – |
| – | – | O=C1Nc2ccccc2OC1O (stereo not drawn) [Compound 5, 2-Hydroxy-1,4-benzoxazin-3(4H)-one] | – | – | – | 39.29 µg/mL (≈ 238 µM) | – | – | – | – | – | – | – |
| 200 to 203 °C | 6.89 ± 0.07 µg/mL | COc1ccc(C(=O)/C=C2\Nc3ccccc3OC2=O)cc1 [Compound 20b, (Z)-3-[2-(4-methoxy-phenyl)-2-oxo-ethylidene]-3,4-dihydro-benzo [1, 4] oxazin-2-one] | – | – | – | – | 686.4 ± 30.8 µM | 75.58% | 92.1% | 88.4% | 80.7% | > 65% | – |
| 198 to 200 °C | 4.74 ± 0.08 µg/mL | O=C1Oc2ccc([N+](=O)[O-])cc2N/C1=C\C(=O)c1ccccc1 [Compound 20t, (Z)-6-nitro-3-(2-oxo-2-phenylethylidene)-3,4-dihydro-2H-benzo[b][1,4]oxazin-2-one] | – | – | – | – | 638.2 ± 32.6 µM | 67.46% | 89.7% | 80.5% | 74.9% | > 65% | less active than BHT |
| 235 to 237 °C | 10.18 ± 0.1 µg/mL | O=C1Oc2cc([N+](=O)[O-])ccc2N/C1=C\C(=O)c1ccc(F)cc1 [Compound 20x, (Z)-3-(2-(4-fluorophenyl)-2-oxoethylidene)-7-nitro-3,4-dihydro-2H-benzo[b][1,4]oxazin-2-one] | – | – | – | – | 628.6 ± 32.4 µM | 73.91% | 95.5% | 86.7% | 81.1% | > 65% | – |
| 208 to 210 °C | 28.8 ± 0.67 µg/mL | O=C1Oc2cc([N+](=O)[O-])ccc2N/C1=C\C(=O)c1ccc(Cl)cc1Cl [Compound 20z, (Z)-3-(2-(2,4-dichlorophenyl)-2-oxoethylidene)-7-nitro-3,4-dihydro-2H-benzo[b][1,4]oxazin-2-one] | – | – | – | – | 437.6 ± 39.4 µM | – | – | – | – | – | more potent than standard reference BHT |
